19 molecules from ChEMBL document CHEMBL3399945, “A class of sulfonamide carbonic anhydrase inhibitors with neuropathic pain modulating effects” (Bioorg Med Chem, 2015) can be followed below.

SMILES strings stand for the structures.

The target of one test is Carbonic anhydrase 1 (Homo sapiens, UniProt P00915). Description: Inhibition of human recombinant CA-1 after 15 mins by stopped-flow CO2 hydrase assay.
Another test addresses Carbonic anhydrase 9 (Homo sapiens, UniProt Q16790).
The target of the next test is Carbonic anhydrase 2 (Homo sapiens, UniProt P00918). Description: Inhibition of human recombinant CA-2 after 15 mins by stopped-flow CO2 hydrase assay.
A further test deals with Carbonic anhydrase 7 (Homo sapiens, UniProt P43166). In words: Inhibition of human recombinant CA-7 after 15 mins by stopped-flow CO2 hydrase assay.
Sequence of Carbonic anhydrase 7 (P43166 whole entry): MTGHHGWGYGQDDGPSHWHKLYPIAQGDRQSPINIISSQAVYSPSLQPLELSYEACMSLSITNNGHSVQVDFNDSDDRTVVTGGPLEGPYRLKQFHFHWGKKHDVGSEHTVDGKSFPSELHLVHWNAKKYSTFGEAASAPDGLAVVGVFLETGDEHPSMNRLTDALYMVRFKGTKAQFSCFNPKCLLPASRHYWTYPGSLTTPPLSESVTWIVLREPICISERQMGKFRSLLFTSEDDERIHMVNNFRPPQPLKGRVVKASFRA
The target of a further test is Carbonic anhydrase 12 (Homo sapiens, UniProt O43570).
Sequence of Carbonic anhydrase 12 (O43570 whole entry): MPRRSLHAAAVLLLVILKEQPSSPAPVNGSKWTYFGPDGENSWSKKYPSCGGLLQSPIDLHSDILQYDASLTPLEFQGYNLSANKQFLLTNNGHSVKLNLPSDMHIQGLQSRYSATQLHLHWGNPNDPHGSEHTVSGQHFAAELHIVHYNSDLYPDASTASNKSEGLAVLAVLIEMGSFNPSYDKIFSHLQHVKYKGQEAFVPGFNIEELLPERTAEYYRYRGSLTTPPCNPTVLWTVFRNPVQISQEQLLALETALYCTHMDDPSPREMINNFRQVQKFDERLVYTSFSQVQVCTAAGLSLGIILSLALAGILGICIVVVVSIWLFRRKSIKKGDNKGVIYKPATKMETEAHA
For test [1], the system named is Mus musculus. In words: Inhibition of oxaliplatin-induced neuropathic pain in po dosed CD-1 mouse model assessed as latency to pain-related behavior after 15 to 45 mins by cold plate test. It counts as functional.
In test [2] the test system is Mus musculus. In words: Inhibition of oxaliplatin-induced neuropathic pain in po dosed CD-1 mouse model assessed as latency to pain-related behavior after 15 to 45 mins by cold plate test relative to acetazolamide. In kind it is functional.

Sequence of Carbonic anhydrase 1 (P00915 whole entry): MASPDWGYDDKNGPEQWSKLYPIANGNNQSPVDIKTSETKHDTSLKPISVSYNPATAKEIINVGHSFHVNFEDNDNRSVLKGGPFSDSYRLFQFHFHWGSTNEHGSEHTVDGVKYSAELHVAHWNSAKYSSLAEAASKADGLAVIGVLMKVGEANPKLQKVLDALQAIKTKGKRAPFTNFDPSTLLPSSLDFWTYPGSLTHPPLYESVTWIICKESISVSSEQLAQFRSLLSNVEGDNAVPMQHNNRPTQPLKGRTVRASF
Description for Carbonic anhydrase 12: Inhibition of human recombinant CA-12 after 15 mins by stopped-flow CO2 hydrase assay
Description for Carbonic anhydrase 9: Inhibition of human recombinant CA-9 after 15 mins by stopped-flow CO2 hydrase assay

Take `NS(=O)(=O)c1ccc(OCC(c2ccccc2)c2ccccc2)cc1`: the Ki is 5680 nM at Carbonic anhydrase 1; 34.1 nM at Carbonic anhydrase 9; 22.1 nM on Carbonic anhydrase 2; 70.7 nM at Carbonic anhydrase 7; 50.4 nM on Carbonic anhydrase 12.

For `CCCCOc1ccc(S(N)(=O)=O)cc1`, the Ki on Carbonic anhydrase 1 was found to be 797 nM; on Carbonic anhydrase 9 it was 10.1 nM; at Carbonic anhydrase 2 it was 7.3 nM; on Carbonic anhydrase 7, 9.8 nM; at Carbonic anhydrase 12, 8.5 nM.

Turning to `CC(=O)Nc1nnc(S(N)(=O)=O)s1` [ACETAZOLAMIDE], the minimal effective dose in the test on Mus musculus [1] (CD-1, po, read-out: MED) turned out to be 30 mg/kg.

`NS(=O)(=O)c1ccc(OCCc2ccccc2)cc1`: the Ki was 207 nM on Carbonic anhydrase 1; 2.4 nM on Carbonic anhydrase 9; 7.8 nM on Carbonic anhydrase 2; 9.4 nM on Carbonic anhydrase 7; 1.2 nM at Carbonic anhydrase 12.

Take `NS(=O)(=O)c1ccc(OCC#Cc2ccccc2)cc1`: the Ki on Carbonic anhydrase 1 worked out at 3450 nM; at Carbonic anhydrase 9, 21.6 nM; on Carbonic anhydrase 2 it was 41.6 nM; on Carbonic anhydrase 7, 97.2 nM; at Carbonic anhydrase 12, 33.8 nM.

On to `NS(=O)(=O)c1ccc(OCc2ccc(Br)cc2)cc1`, for which the Ki was found to be 246 nM on Carbonic anhydrase 1; 3.5 nM on Carbonic anhydrase 9; 27.8 nM on Carbonic anhydrase 2; 8.9 nM on Carbonic anhydrase 7; 6.4 nM on Carbonic anhydrase 12.

For the molecule `NS(=O)(=O)c1ccc(OCc2c(F)c(F)c(F)c(F)c2F)cc1`, the Ki was determined as 231 nM at Carbonic anhydrase 1; 0.86 nM on Carbonic anhydrase 9; 26 nM on Carbonic anhydrase 2; 8.9 nM at Carbonic anhydrase 7; 0.75 nM at Carbonic anhydrase 12.

For `NS(=O)(=O)c1nc2ccc(OCc3ccccc3)cc2s1`, the Ki on Carbonic anhydrase 1 turned out to be 48.1 nM; on Carbonic anhydrase 2, 7.6 nM; at Carbonic anhydrase 7 it was 7.7 nM; on Carbonic anhydrase 12, 2.5 nM.

Regarding `NS(=O)(=O)c1ccc(OCc2ccc(F)cc2)cc1`, the Ki at Carbonic anhydrase 1 was found to be 315 nM; on Carbonic anhydrase 2, 23.8 nM; on Carbonic anhydrase 7, 9.7 nM; at Carbonic anhydrase 12, 8 nM.

For `NS(=O)(=O)c1ccc2c(c1)CCN2C(=O)C(F)(F)F`, the Ki on Carbonic anhydrase 1 was 34.3 nM; at Carbonic anhydrase 9, 6.9 nM; at Carbonic anhydrase 2, 9.2 nM; on Carbonic anhydrase 7 it was 8.3 nM; at Carbonic anhydrase 12 it was 4.1 nM.

As to `NS(=O)(=O)c1ccc(OCc2ccc([N+](=O)[O-])cc2)cc1`, the Ki is 143 nM at Carbonic anhydrase 1; 1.3 nM on Carbonic anhydrase 9; 1.4 nM on Carbonic anhydrase 2; 0.9 nM on Carbonic anhydrase 7; 0.72 nM at Carbonic anhydrase 12.

Regarding `NS(=O)(=O)c1nc2ccc(OCC#Cc3ccccc3)cc2s1`, the Ki on Carbonic anhydrase 1 amounted to 2420 nM; at Carbonic anhydrase 9 it was 10.3 nM; at Carbonic anhydrase 2, 52.1 nM; on Carbonic anhydrase 7 it was 73.8 nM; at Carbonic anhydrase 12 it was 6.2 nM.

Turning to `C#CCN(CC#C)c1ccc(S(N)(=O)=O)cc1`, the Ki at Carbonic anhydrase 1 came to 6400 nM; on Carbonic anhydrase 9, 9 nM; at Carbonic anhydrase 2 it was 1780 nM; on Carbonic anhydrase 7, 8.6 nM; on Carbonic anhydrase 12 it was 4.9 nM.

For `NS(=O)(=O)c1ccc(OCCN2CCOCC2)cc1`, the Ki on Carbonic anhydrase 1 was found to be 453 nM; on Carbonic anhydrase 2 it was 31.7 nM; on Carbonic anhydrase 7, 86.4 nM; on Carbonic anhydrase 12, 10.7 nM.

On to `C=CCOc1ccc(S(N)(=O)=O)cc1`, for which the Ki was 13.5 nM at Carbonic anhydrase 9, 9.9 nM on Carbonic anhydrase 7 and 6.8 nM on Carbonic anhydrase 12.

Take `CCCOc1ccc(S(N)(=O)=O)cc1`: the Ki on Carbonic anhydrase 1 is 780 nM; on Carbonic anhydrase 9, 13.2 nM; on Carbonic anhydrase 2, 12.8 nM; on Carbonic anhydrase 7, 10.1 nM; on Carbonic anhydrase 12, 7.9 nM.

For the molecule `NS(=O)(=O)c1ccc(OCc2ccccc2)cc1`, the Ki on Carbonic anhydrase 1 stood at 762 nM; at Carbonic anhydrase 9 it was 17.9 nM; at Carbonic anhydrase 2, 20.3 nM; at Carbonic anhydrase 7, 8.3 nM; at Carbonic anhydrase 12, 10.5 nM.

Consider `CCOc1ccc(S(N)(=O)=O)cc1`, for which the Ki on Carbonic anhydrase 1 was determined as 246 nM; at Carbonic anhydrase 9 it was 8.1 nM; at Carbonic anhydrase 2, 23.1 nM; at Carbonic anhydrase 7 it was 9.5 nM; at Carbonic anhydrase 12, 13.6 nM. The inhibition result in the test with Mus musculus [1] is “Dose-dependent effect”. Moreover, in the test with Mus musculus [2], the Ratio is 3.

Regarding `C#CCOc1ccc(S(N)(=O)=O)cc1`, the Ki was 2340 nM on Carbonic anhydrase 1, 28.7 nM at Carbonic anhydrase 2, 9.6 nM on Carbonic anhydrase 7 and 2.3 nM at Carbonic anhydrase 12.
